Measured values from patent US20250129062A1, “AMORPHOUS SUBSTANCES, CRYSTALS, PHARMACEUTICAL COMPOSITIONS, PREPARATION METHODS AND USES OF THIOHYDANTOIN COMPOUND OR PHARMACEUTICALLY ACCEPTABLE SALT THEREOF” (SUZHOU KINTOR PHARMACEUTICALS, INC., priority 2021, published 2025).
Values after ≈ are worked out from the molar mass of the structure shown. Where two headings read alike, the source gives them in different places.

Key:
[1] = Solubility of amorphous substance in solvent systems (supersaturated solution, oscillated 24 h at room temperature, HPLC); type: physicochemical; conditions: for solubility at 24 h: thermodynamic from solid
Experimental: The amorphous substance of the compound of formula I was prepared into supersaturated solutions with different solvents, and oscillated under a room temperature condition (a constant temperature). After oscillating for 24 h, sampling was performed, and the content of the sample was detected by HPLC under condition 1.
Condition 1: • Chromatographic column: C18 (150 mm×4.6 mm×3.5 μm); • Mobile phase: binary mobile phase system, mobile phase A was 0.1% formic acid in water, mobile phase B was acetonitrile; • Elution time: 68 min; • Elution mode: gradient elution (in the gradient elution process, mobile phase A had the maximum volume percentage of 95% and the minimum volume percentage of 10%); • Detection wavelength: 270 nm.

[2] = High temperature stability experiment of amorphous substance (60° C.); type: physicochemical; conditions: 60° C. in the dark
Experimental: The amorphous substance of the compound of formula I prepared in example 1 was stored at 60° C. in the dark for 30 days, and the purity percentages were detected by HPLC on day 0, day 5, day 10 and day 30, respectively.

[3] = Distribution of compound in sebaceous glands and blood of golden hamsters after single skin application; type: in vivo; conditions: golden hamsters, administration via skin application; listed as amorphous substance of the compound of formula I
Experimental: 6 male golden hamsters were selected for the experiment, and randomly divided evenly into 2 groups, with three golden hamsters per group. All animals were fasted overnight before administration, and were administered via a route of single application. Sampling was performed at specific time points after administration. Specific information on animal grouping, administration, sampling, etc. were detailed in Table 6.
The amorphous substance of the compound of formula I was weighed and placed in a 50 mL centrifugal tube. A mixed solvent (consisting of 75% v/v ethanol, 15% v/v glyceryl tri (2-ethylhexanoate) and 10% v/v glycerin) was added. After vortexing, heating was performed at 60° C. until the amorphous substance of the compound of formula I was completely dissolved. The amorphous substances of the compound of formula I in the two groups were prepared at 30 mg/mL and 100 mg/mL, respectively, and stored at room temperature in the dark.
After administration, blood was collected into blood collection tubes containing a heparin sodium anticoagulant at corresponding time points. Immediately after collection of whole blood, the blood collection tubes were gently shaken and placed on ice, and then centrifuged (4° C., 4000 rpm, 10 min). The supernatant plasma samples (plasma volume ≥100 μL) were collected, and stored in a refrigerator at about −80° C. The plasma samples were collected for 8 h for analysis.

Cc1ncsc1-c1ccc(CNC(=O)[C@@H]2C[C@@H](O)CN2C(=O)[C@@H](NC(=O)COCCCCOc2ccc(-c3ccc(N4C(=S)N(c5ccc(C#N)c(C(F)(F)F)c5F)C(=O)C4(C)C)cn3)cc2)C(C)(C)C)cc1
solubility at 24 h ([1]; dehydrated alcohol-propylene glycol-water solvent mixture, aqueous with cosolvent or surfactant or cyclodextrin, Dehydrated alcohol 40%-propylene glycol 10%-water 50% (w/w), read-out: Solubility): 3020 µg/mL (≈ 2.89 mM)
solubility at 24 h ([1]; dehydrated alcohol-propylene glycol-water solvent mixture, aqueous with cosolvent or surfactant or cyclodextrin, Dehydrated alcohol 40%-propylene glycol 20%-water 40% (w/w), read-out: Solubility): 19500 µg/mL (≈ 18.7 mM)
solubility at 24 h ([1]; dehydrated alcohol-propylene glycol-water solvent mixture, aqueous with cosolvent or surfactant or cyclodextrin, Dehydrated alcohol 40%-propylene glycol 30%-water 30% (w/w), read-out: Solubility): 49800 µg/mL (≈ 47.7 mM)
solubility at 24 h ([1]; dehydrated alcohol-propylene glycol-water solvent mixture, aqueous with cosolvent or surfactant or cyclodextrin, Dehydrated alcohol 40%-propylene glycol 40%-water 20% (w/w), read-out: Solubility): > 97600 µg/mL
solubility at 24 h ([1]; dehydrated alcohol-propylene glycol-water solvent mixture, aqueous with cosolvent or surfactant or cyclodextrin, Dehydrated alcohol 50%-propylene glycol 10%-water 40% (w/w), read-out: Solubility): 77700 µg/mL (≈ 74.5 mM)
solubility at 24 h ([1]; dehydrated alcohol-propylene glycol-water solvent mixture, aqueous with cosolvent or surfactant or cyclodextrin, Dehydrated alcohol 50%-propylene glycol 20%-water 30% (w/w), read-out: Solubility): > 77500 µg/mL
solubility at 24 h ([1]; dehydrated alcohol-propylene glycol-water solvent mixture, aqueous with cosolvent or surfactant or cyclodextrin, Dehydrated alcohol 50%-propylene glycol 30%-water 20% (w/w), read-out: Solubility): > 69300 µg/mL
solubility at 24 h ([1]; dehydrated alcohol-propylene glycol-water solvent mixture, aqueous with cosolvent or surfactant or cyclodextrin, Dehydrated alcohol 50%-propylene glycol 40%-water 10% (w/w), read-out: Solubility): > 67800 µg/mL
solubility at 24 h ([1]; dehydrated alcohol-propylene glycol-water solvent mixture, organic solvent or mixture, Dehydrated alcohol 50%-propylene glycol 50%-water 00% (w/w), read-out: Solubility): > 96000 µg/mL
solubility at 24 h ([1]; glycerin, organic solvent or mixture, solvent: Glycerin, read-out: 24 h solubility): 440 µg/mL (≈ 0.422 mM)
solubility at 24 h ([1]; liquid paraffin, oil or lipid, solvent: Liquid paraffin, read-out: 24 h solubility): 10 µg/mL (≈ 0.00959 mM)
solubility at 24 h ([1]; oleic acid, oil or lipid, solvent: Oleic acid, read-out: 24 h solubility): 1410 µg/mL (≈ 1.35 mM)
solubility at 24 h ([1]; polyethylene glycol 400 (PEG400), organic solvent or mixture, solvent: Polyethylene glycol 400 (PEG400), read-out: 24 h solubility): 16000 µg/mL (≈ 15.4 mM)
solubility at 24 h ([1]; propylene glycol, organic solvent or mixture, solvent: Propylene glycol, read-out: 24 h solubility): 12000 µg/mL (≈ 11.5 mM)
solubility at 24 h ([1]; solvent mixture, aqueous with cosolvent or surfactant or cyclodextrin, Dehydrated alcohol 10%-PEG400 30%-water 60% (w/w), read-out: Solubility): 60 µg/mL (≈ 0.0575 mM)
solubility at 24 h ([1]; solvent mixture, aqueous with cosolvent or surfactant or cyclodextrin, Dehydrated alcohol 10%-PEG400 40%-water 50% (w/w), read-out: Solubility): 280 µg/mL (≈ 0.268 mM)
solubility at 24 h ([1]; solvent mixture, aqueous with cosolvent or surfactant or cyclodextrin, Dehydrated alcohol 10%-glycerin 10%-water 80% (w/w), read-out: Solubility): < 100 µg/mL
solubility at 24 h ([1]; solvent mixture, aqueous with cosolvent or surfactant or cyclodextrin, Dehydrated alcohol 10%-glycerin 20%-water 70% (w/w), read-out: Solubility): < 100 µg/mL
solubility at 24 h ([1]; solvent mixture, aqueous with cosolvent or surfactant or cyclodextrin, Dehydrated alcohol 10%-glycerin 30%-water 60% (w/w), read-out: Solubility): < 100 µg/mL
solubility at 24 h ([1]; solvent mixture, aqueous with cosolvent or surfactant or cyclodextrin, Dehydrated alcohol 20%-glycerin 10%-water 70% (w/w), read-out: Solubility): < 100 µg/mL
solubility at 24 h ([1]; solvent mixture, aqueous with cosolvent or surfactant or cyclodextrin, Dehydrated alcohol 20%-glycerin 20%-water 60% (w/w), read-out: Solubility): < 100 µg/mL
solubility at 24 h ([1]; solvent mixture, aqueous with cosolvent or surfactant or cyclodextrin, Dehydrated alcohol 20%-glycerin 30%-water 50% (w/w), read-out: Solubility): < 100 µg/mL
solubility at 24 h ([1]; solvent mixture, aqueous with cosolvent or surfactant or cyclodextrin, Dehydrated alcohol 20%-glycerin 40%-water 40% (w/w), read-out: Solubility): < 100 µg/mL
solubility at 24 h ([1]; solvent mixture, aqueous with cosolvent or surfactant or cyclodextrin, Dehydrated alcohol 20%-glycerin 50%-water 30% (w/w), read-out: Solubility): < 100 µg/mL
solubility at 24 h ([1]; solvent mixture, aqueous with cosolvent or surfactant or cyclodextrin, Dehydrated alcohol 30%-glycerin 10%-water 60% (w/w), read-out: Solubility): 80 µg/mL (≈ 0.0767 mM)
solubility at 24 h ([1]; solvent mixture, aqueous with cosolvent or surfactant or cyclodextrin, Dehydrated alcohol 30%-glycerin 20%-water 50% (w/w), read-out: Solubility): 140 µg/mL (≈ 0.134 mM)
solubility at 24 h ([1]; solvent mixture, aqueous with cosolvent or surfactant or cyclodextrin, Dehydrated alcohol 30%-glycerin 30%-water 40% (w/w), read-out: Solubility): 650 µg/mL (≈ 0.623 mM)
solubility at 24 h ([1]; solvent mixture, aqueous with cosolvent or surfactant or cyclodextrin, Dehydrated alcohol 30%-glycerin 40%-water 30% (w/w), read-out: Solubility): 2260 µg/mL (≈ 2.17 mM)
solubility at 24 h ([1]; solvent mixture, aqueous with cosolvent or surfactant or cyclodextrin, Dehydrated alcohol 30%-glycerin 50%-water 20% (w/w), read-out: Solubility): 4080 µg/mL (≈ 3.91 mM)
solubility at 24 h ([1]; solvent mixture, aqueous with cosolvent or surfactant or cyclodextrin, Dehydrated alcohol 40%-glycerin 10%-water 50% (w/w), read-out: Solubility): 1580 µg/mL (≈ 1.51 mM)
solubility at 24 h ([1]; solvent mixture, aqueous with cosolvent or surfactant or cyclodextrin, Dehydrated alcohol 40%-glycerin 20%-water 40% (w/w), read-out: Solubility): 3400 µg/mL (≈ 3.26 mM)
solubility at 24 h ([1]; solvent mixture, aqueous with cosolvent or surfactant or cyclodextrin, Dehydrated alcohol 40%-glycerin 30%-water 30% (w/w), read-out: Solubility): 8840 µg/mL (≈ 8.47 mM)
solubility at 24 h ([1]; solvent mixture, aqueous with cosolvent or surfactant or cyclodextrin, Dehydrated alcohol 40%-glycerin 40%-water 20% (w/w), read-out: Solubility): 14700 µg/mL (≈ 14.1 mM)
solubility at 24 h ([1]; solvent mixture, aqueous with cosolvent or surfactant or cyclodextrin, Dehydrated alcohol 40%-glycerin 50%-water 10% (w/w), read-out: Solubility): 40000 µg/mL (≈ 38.4 mM)
solubility at 24 h ([1]; solvent mixture, aqueous with cosolvent or surfactant or cyclodextrin, Dehydrated alcohol 50%-PEG400 10%-water 40% (w/w), read-out: Solubility): 25100 µg/mL (≈ 24.1 mM)
solubility at 24 h ([1]; solvent mixture, aqueous with cosolvent or surfactant or cyclodextrin, Dehydrated alcohol 50%-PEG400 20%-water 30% (w/w), read-out: Solubility): > 51500 µg/mL
solubility at 24 h ([1]; solvent mixture, aqueous with cosolvent or surfactant or cyclodextrin, Dehydrated alcohol 50%-glycerin 10%-water 40% (w/w), read-out: Solubility): 15200 µg/mL (≈ 14.5 mM)
solubility at 24 h ([1]; solvent mixture, aqueous with cosolvent or surfactant or cyclodextrin, Dehydrated alcohol 50%-glycerin 20%-water 30% (w/w), read-out: Solubility): 23900 µg/mL (≈ 22.9 mM)
solubility at 24 h ([1]; solvent mixture, aqueous with cosolvent or surfactant or cyclodextrin, Dehydrated alcohol 50%-glycerin 30%-water 20% (w/w), read-out: Solubility): > 43600 µg/mL
solubility at 24 h ([1]; solvent mixture, aqueous with cosolvent or surfactant or cyclodextrin, Dehydrated alcohol 50%-glycerin 40%-water 10% (w/w), read-out: Solubility): > 64600 µg/mL
solubility at 24 h ([1]; solvent mixture, organic solvent or mixture, Dehydrated alcohol 50%-glycerin 50%-water 00% (w/w), read-out: Solubility): > 74100 µg/mL
24 h solubility ([1]; solvent: Dehydrated alcohol): >54480 µg/mL
24 h solubility ([1]; solvent: Liquid paraffin, listed as amorphous substance of the compound of formula I): extremely low
24 h solubility ([1]; solvent: Water, listed as amorphous substance of the compound of formula I): basically insoluble
Purity % ([2]; 0 day): 99.35%
Purity % ([2]; 5 days): 99.34%
Purity % ([2]; 10 days): 99.27%
Purity % ([2]; 30 days): 99.34%
distribution between sebaceous glands and blood after skin application [3]: can enter sebaceous glands but cannot enter blood
